Experimental data reported in patent publication US20080207632A1, “PROTEIN KINASE INHIBITORS” (SUPERGEN, INC., priority 2006, published 2008).

Experiments:
Assay type in all cases: cell-based
[1] = system: U2-OS (osteosarcoma); experiment: in vitro cytotoxicity assay (Cell-Titer-Glo), U2-OS; details: Homo sapiens, U2OS, 96 h; Table 9; 4 days; read-out: IC50 U2-OS
Procedure: (§1) To evaluate cell killing of cancer cell lines, an in vitro cytotoxicity assay was performed. The tumor cell lines used were purchased from the American Type Culture Collection, and are identified as follows: Panc-1 (pancreas), MiaPaCa-2 (pancreas), MCF-7 (breast), HT-29 (colon), U2-OS (osteosarcoma), OVCAR-3 (ovary), HepG2 (hepatocellular carcinoma) and TT (medullary thyroid). The assay utilized the Cell-Titer-Glo Non-Radioactive Cell Proliferation Assay (Promega Corp., Madison, Wis.). First the cells were cultured in RPMI 1640 medium (Cat# 21870-076, Invitrogen Corporation) supplemented with 300 mg/L L-glutamine, 100 units/ml penicillin, 100 μg/ml streptomycin and 10% fetal bovine serum. All the cell lines were incubated in a humidified incubator at 37° C. with 5% CO2 atmosphere.
(§2) Cells were plated at a density of 2000 to 10000 cells per well, depending on their growth rate, in 0.09 mL medium on day 0 in 96-well Microlite TCT microtiter plates (7418, Thermo Labsystems, Franklin, Mass.). On day 1, 10 μL of serial dilutions of the individual compounds were added to the plates in replicates of 3. After incubation for 4 days at 37° C. in a humidified incubator, the cells were lysed in the Cell-Titer-Glo reagent, which also contains luciferase enzyme. The luciferase reaction utilizes ATP released from lysed cells to produce light, the intensity of which is linearly related to the amount of ATP. Thus, the amount of light produced is a reflection of the number of cells remaining in the well after drug treatment. This luminescence was measured using a Luminoskan luminometer (Thermo Electron Corp., Vantaa, Finland) Data were expressed as the percentage of survival of control cells calculated from the luminescence corrected for background. The surviving percent of cells was determined by dividing the mean luminescence values of the treated wells by the mean luminescence values of the control and multiplying by 100.
as §1, with “Briefly,” for “To evaluate cell killing of cancer cell lines, an in vitro cytotoxicity assay was performed. The”, “thyroid), PC-3 (prostate) and A549 (lung).” for “thyroid).”
as §1, with “carcinoma), PC-3 (prostate),” for “carcinoma)”, “A549 (lung).” for “TT (medullary thyroid).”
(§3) Cells were plated at a density of 2000 to 10000 cells per well, depending on their growth rate, in 0.09 mL medium on day 0 in 96-well Microlite TCT microtiter plates (#7418, Thermo Labsystems, Franklin, Mass.). On day 1, 10 μL of serial dilutions of the individual compounds were added to the plates in replicates of 3. After incubation for 4 days at 37° C. in a humidified incubator, the cells were lysed in the Cell-Titer-Glo reagent, which also contains luciferase enzyme. […]

[2] = system: PC-3 (prostate); experiment: in vitro cytotoxicity assay (Cell-Titer-Glo), PC-3; details: 96 h; Table 9; 4 days; read-out: IC50 PC-3
Procedure: as §1, with “Briefly,” for “To evaluate cell killing of cancer cell lines, an in vitro cytotoxicity assay was performed. The”, “thyroid), PC-3 (prostate) and A549 (lung).” for “thyroid).”
as §2
as §1, with “carcinoma), PC-3 (prostate),” for “carcinoma)”, “A549 (lung).” for “TT (medullary thyroid).”
as §2, with “(#7418,” for “(7418,”, “100. […]” for “100.”

[3] = system: OVCAR-3 (ovary); experiment: in vitro cytotoxicity assay (Cell-Titer-Glo), OVCAR-3; details: Homo sapiens, OVCAR-3, 96 h; Table 9; 4 days; read-out: IC50 OVCAR-3
Procedure: as §1, §2
as §1, with “Briefly,” for “To evaluate cell killing of cancer cell lines, an in vitro cytotoxicity assay was performed. The”, “thyroid), PC-3 (prostate) and A549 (lung).” for “thyroid).”
as §1, with “carcinoma), PC-3 (prostate),” for “carcinoma)”, “A549 (lung).” for “TT (medullary thyroid).”
as §3

[4] = system: MiaPaCa-2 (pancreas); experiment: in vitro cytotoxicity assay (Cell-Titer-Glo), MiaPaCa-2; details: Homo sapiens, MIA PaCa-2, 96 h; Table 9; 4 days; read-out: IC50 MiaPaCa-2
Procedure: as §1, §2
as §1, with “Briefly,” for “To evaluate cell killing of cancer cell lines, an in vitro cytotoxicity assay was performed. The”, “thyroid), PC-3 (prostate) and A549 (lung).” for “thyroid).”
as §1, with “carcinoma), PC-3 (prostate),” for “carcinoma)”, “A549 (lung).” for “TT (medullary thyroid).”
as §3

[5] = system: HT-29 (colon); experiment: in vitro cytotoxicity assay (Cell-Titer-Glo), HT-29; details: Homo sapiens, HT-29, 96 h; Table 9; 4 days; read-out: IC50 HT-29
Procedure: as §1, §2
as §1, with “Briefly,” for “To evaluate cell killing of cancer cell lines, an in vitro cytotoxicity assay was performed. The”, “thyroid), PC-3 (prostate) and A549 (lung).” for “thyroid).”
as §1, with “carcinoma), PC-3 (prostate),” for “carcinoma)”, “A549 (lung).” for “TT (medullary thyroid).”
as §3

[6] = system: A549 (lung); experiment: in vitro cytotoxicity assay (Cell-Titer-Glo), A549; details: Homo sapiens, A549, 96 h; Table 9; 4 days; read-out: IC50 A549
Procedure: as §1, with “Briefly,” for “To evaluate cell killing of cancer cell lines, an in vitro cytotoxicity assay was performed. The”, “thyroid), PC-3 (prostate) and A549 (lung).” for “thyroid).”
as §2
as §1, with “carcinoma), PC-3 (prostate),” for “carcinoma)”, “A549 (lung).” for “TT (medullary thyroid).”
as §2, with “(#7418,” for “(7418,”, “100. […]” for “100.”

[7] = system: MCF-7 (breast); experiment: in vitro cytotoxicity assay (Cell-Titer-Glo), MCF-7; details: Homo sapiens, MCF7, 96 h; Table 9; 4 days; read-out: IC50 MCF-7
Procedure: as §1, §2
as §1, with “Briefly,” for “To evaluate cell killing of cancer cell lines, an in vitro cytotoxicity assay was performed. The”, “thyroid), PC-3 (prostate) and A549 (lung).” for “thyroid).”
as §1, with “carcinoma), PC-3 (prostate),” for “carcinoma)”, “A549 (lung).” for “TT (medullary thyroid).”
as §3

[8] = system: HepG2 (hepatocellular carcinoma); experiment: in vitro cytotoxicity assay (Cell-Titer-Glo), HepG2; details: Homo sapiens, HepG2, 96 h; Table 9; 4 days; read-out: IC50 HepG2
Procedure: as §1, §2
as §1, with “Briefly,” for “To evaluate cell killing of cancer cell lines, an in vitro cytotoxicity assay was performed. The”, “thyroid), PC-3 (prostate) and A549 (lung).” for “thyroid).”
as §1, with “carcinoma), PC-3 (prostate),” for “carcinoma)”, “A549 (lung).” for “TT (medullary thyroid).”
as §3

SMILES | IC50 [1] [µM] | IC50 [2] [µM] | IC50 [3] [µM] | IC50 [4] [µM] | IC50 [5] [µM] | IC50 [6] [µM] | IC50 [7] [µM] | IC50 [8] [µM]
COc1cc2[nH]c3ncnc(N4CCN(C(=S)Nc5ccc(S(=O)(=O)Nc6ccc(F)cc6)cc5)CC4)c3c2cc1OC [Compound 2-3, 4-(6,7-dimethoxy-9H-pyrimido[4,5-b]indol-4-yl)-N-(4-(N-(4-fluorophenyl)sulfamoyl)phenyl)piperazine-1-carbothioamide] | 8.18 | 8.78 | 9.14 | 7.19 | 6.42 | 23 | 8.43 | 9.02
COc1ccc2c(c1)[nH]c1ncnc(N3CCN(C(=S)Nc4ccc(S(=O)(=O)Nc5ccc(F)cc5)cc4)CC3)c12 [Compound 2-5, 4-(7-methoxy-9H-pyrimido[4,5-b]indol-4-yl)-N-(4-(N-(4-fluorophenyl)sulfamoyl)phenyl)piperazine-1-carbothioamide] | 8.49 | 7.68 | 6.79 | 6.89 | 6.93 | 6.73 | 8.11 | 8
Cc1ccc(NS(=O)(=O)c2ccc(NC(=S)N3CCN(c4ncnc5[nH]c6cc(Cl)c(N7CCOCC7)cc6c45)CC3)cc2)cc1 [Compound 2-9, 4-(7-chloro-6-morpholino-9H-pyrimido[4,5-b]indol-4-yl)-N-(4-(N-tolylsulfamoyl)phenyl)piperazine-1-carbothioamide] | 8.56 | 8.25 | 7.61 | 26.9 | 8 | 19.4 | 8.21 | 25.6
